Measured values from US20240252596A1, “Injectable Polymeric Biopharmaceutical Formulations” (The Board of Trustees of the Leland Stanford Junior …, priority 2023, published 2024).

System: not listed separately
Test: Liquid carrier studies: suspension performance of BSA/MoNi (5%) microparticles at 460 mg/mL
Settings: BSA/MoNi (5%) microparticles dispersed at 460 mg/mL in the media
Procedure: (§1) To investigate the liquid carrier component of the subject compositions, a number of solvents were tested for their suspension performance characteristics.

Row | SMILES | Suspension Performance
1 | CC(=O)OCC(COC(C)=O)OC(C)=O [Triacetin] | ++
2 | CN1CCCC1=O [N-methyl-2-pyrrolidone (NMP), N-methyl-2-pyrrolidone] | +/−
3 | O=C(OCc1ccccc1)c1ccccc1 [Benzyl benzoate] | +
4 | OCc1ccccc1 [Benzyl Alcohol (BA), Benzyl Alcohol] | +

Same assay, conditions: BSA/MoNi (5%) microparticles dispersed in the media

Row | SMILES | Additional comments (consistency on dispersion, stability of suspension)
5 | CC(=O)OCC(COC(C)=O)OC(C)=O [Triacetin] | A very good non-solvent. Shows
6 | C[S+](C)[O-] [Dimethyl sulfoxide (DMSO), Dimethyl sulfoxide] | quickly hardens into a flaky
7 | CN1CCCC1=O [N-methyl-2-pyrrolidone (NMP), N-methyl-2-pyrrolidone] | Forms very low viscosity
8 | CC(O)CO (stereo not drawn) [Propylene glycol (PG), Propylene glycol] | quickly hardens into a sticky
9 | CCO [Ethyl alcohol] | Clumps immediately, cannot
10 | O=C(OCc1ccccc1)c1ccccc1 [Benzyl benzoate] | Forms a low viscosity solution
11 | OCc1ccccc1 [Benzyl Alcohol (BA), Benzyl Alcohol] | Forms very low viscosity

Same assay, conditions: sealed in a glass container with parafilm

Row | SMILES | time until suspension hardens
12 | C[S+](C)[O-] [Dimethyl sulfoxide (DMSO), Dimethyl sulfoxide] | paste (within 1 hour when sealed
13 | CC(O)CO (stereo not drawn) [Propylene glycol (PG), Propylene glycol] | rock (within a couple hours

System: not listed separately
Test: Syringe force measurements of liquid carriers alone after 48 h
Assay type: physicochemical
Settings: media alone in syringe, after 48 h at ambient temperature
Procedure: To investigate the syringe force profile for various liquid carriers in syringes (e.g., break loose (initiating) force, and the glide (sustaining) force), the following media alone were loaded into syringes in duplicate (n=2): • 1. triacetin (100%) • 2. benzyl benzoate (100%) • 3. Miglyol 810 (100%) • 4. Miglyol 840 (100%) • 5. benzyl alcohol (100%) • 6. ethyl oleate (100%).
The above syringes were stored for 48 h at ambient temperature, protected from light.
Syringe force measurements (n=2) were conducted on each media after 48 h.

Row | SMILES | Break loose (N), n = 2 [N] | Glide force (N), n = 2 [N]
14 | CCCCCCCC/C=C\CCCCCCCC(=O)OCC [ethyl oleate] | 4.2 | 3.2
15 | CC(=O)OCC(COC(C)=O)OC(C)=O [Triacetin] | 8.1 | 6.1
16 | O=C(OCc1ccccc1)c1ccccc1 [Benzyl benzoate] | 5.7 | 3.5
17 | OCc1ccccc1 [Benzyl Alcohol (BA), Benzyl Alcohol] | 4.8 | 2.5

System: SKH1-E mice
Test: Tolerability screen: subcutaneous injection of solvent or solvent blend, adverse skin reaction
Assay type: in vivo
Settings: 10 uL s.c.
Procedure: SKH1-E mice were subcutaneously administered 10 μL of solvent or solvent blend with triacetin (no protein). […] Volume of solvent injected was 2× the solvent volume that would be administered to a mouse in a paste.
Degree of adverse skin reaction was quantified using the grading scale of Table 5: […]

Row | SMILES | skin reaction
18 | CC(=O)OCC(COC(C)=O)OC(C)=O [Triacetin] | no skin swelling or redness

System: not listed separately
Test: Parameters of liquid carriers (density, viscosity, vapor pressure)
Settings: liquid carrier
Procedure: as §1

Row | SMILES | Density [g/mL] | Vapor pressure [Pa]
19 | CC(=O)OCC(COC(C)=O)OC(C)=O [Triacetin] | 1.16 | 0.267
20 | C[S+](C)[O-] [Dimethyl sulfoxide (DMSO), Dimethyl sulfoxide] | 1.09 | 80
21 | CN1CCCC1=O [N-methyl-2-pyrrolidone (NMP), N-methyl-2-pyrrolidone] | 1.03 | 45
22 | CC(O)CO (stereo not drawn) [Propylene glycol (PG), Propylene glycol] | 1.03 | 11
23 | CCO [Ethyl alcohol] | 0.79 | –
24 | O=C(OCc1ccccc1)c1ccccc1 [Benzyl benzoate] | 1.11 | –
25 | OCc1ccccc1 [Benzyl Alcohol (BA), Benzyl Alcohol] | 1.04 | 12

Same assay, conditions: liquid carrier, 25 C.

Row | SMILES | Viscosity (@25 C.)
26 | CC(=O)OCC(COC(C)=O)OC(C)=O [Triacetin] | 23
27 | C[S+](C)[O-] [Dimethyl sulfoxide (DMSO), Dimethyl sulfoxide] | 2.0
28 | CN1CCCC1=O [N-methyl-2-pyrrolidone (NMP), N-methyl-2-pyrrolidone] | 1.89
29 | CC(O)CO (stereo not drawn) [Propylene glycol (PG), Propylene glycol] | 48.6
30 | CCO [Ethyl alcohol] | 1.07
31 | O=C(OCc1ccccc1)c1ccccc1 [Benzyl benzoate] | 8.29
32 | OCc1ccccc1 [Benzyl Alcohol (BA), Benzyl Alcohol] | 5.4

System: not listed separately
Test: Syringe force measurements of liquid carriers alone after 48 h
Assay type: physicochemical
Settings: vehicle

Row | SMILES | Viscosity (cp)*
33 | CCCCCCCC/C=C\CCCCCCCC(=O)OCC [ethyl oleate] | 6 cp
34 | CC(=O)OCC(COC(C)=O)OC(C)=O [Triacetin] | 23 cp
35 | O=C(OCc1ccccc1)c1ccccc1 [Benzyl benzoate] | 8-9 cp
36 | OCc1ccccc1 [Benzyl Alcohol (BA), Benzyl Alcohol] | 5 cp
